Measurements reported in PubChem BioAssay AID1259407 (Chemical Carcinogenesis Research Information System (CCRIS), 2018).
The source made the active and inactive calls. How the calls were made is not given here.

Tested on: CCRIS mutagenicity, Ames/micronucleus/aberration tests
Experiment: CCRIS mutagenicity studies
[1] = Test System: AMES SALMONELLA TYPHIMURIUM, Strain/Indicator: TA98, Metabolic Activation: NONE, Method: STANDARD PLATE
[2] = Test System: AMES SALMONELLA TYPHIMURIUM, Strain/Indicator: TA100, Metabolic Activation: NONE, Method: STANDARD PLATE

Structure (SMILES): CNCCCC(=O)O
- mutagenic call (Test System: AMES SALMONELLA TYPHIMURIUM, Strain/Indicator: TA97, Metabolic Activation: NONE, Method: STANDARD PLATE): inactive; negative
- mutagenic call (Test System: AMES SALMONELLA TYPHIMURIUM, Strain/Indicator: TA97, Metabolic Activation: RAT, LIVER, S-9, AROCLOR 1254, Method: STANDARD PLATE): inactive; negative
- mutagenic call [1]: inactive; negative
- mutagenic call (Test System: AMES SALMONELLA TYPHIMURIUM, Strain/Indicator: TA98, Metabolic Activation: RAT, LIVER, S-9, AROCLOR 1254, Method: PREINCUBATION): inactive; negative
- mutagenic call (Test System: AMES SALMONELLA TYPHIMURIUM, Strain/Indicator: TA98, Metabolic Activation: RAT, LIVER, S-9, AROCLOR 1254, Method: STANDARD PLATE): inactive; negative
- mutagenic call [2]: inactive; negative
- mutagenic call (Test System: AMES SALMONELLA TYPHIMURIUM, Strain/Indicator: TA100, Metabolic Activation: RAT, LIVER, S-9, AROCLOR 1254, Method: STANDARD PLATE): inactive; negative
- mutagenic call (Test System: AMES SALMONELLA TYPHIMURIUM, Strain/Indicator: TA102, Metabolic Activation: NONE, Method: STANDARD PLATE): inactive; negative
- mutagenic call (Test System: AMES SALMONELLA TYPHIMURIUM, Strain/Indicator: TA102, Metabolic Activation: RAT, LIVER, S-9, AROCLOR 1254, Method: STANDARD PLATE): inactive; negative
- mutagenic call (Test System: AMES SALMONELLA TYPHIMURIUM, Strain/Indicator: TA104, Metabolic Activation: NONE, Method: STANDARD PLATE): inactive; negative
- mutagenic call (Test System: AMES SALMONELLA TYPHIMURIUM, Strain/Indicator: TA104, Metabolic Activation: RAT, LIVER, S-9, AROCLOR 1254, Method: PREINCUBATION): inactive; negative
- mutagenic call (Test System: AMES SALMONELLA TYPHIMURIUM, Strain/Indicator: TA104, Metabolic Activation: RAT, LIVER, S-9, AROCLOR 1254, Method: STANDARD PLATE): inactive; negative
- mutagenic call (Test System: AMES SALMONELLA TYPHIMURIUM, Strain/Indicator: TA2638, Metabolic Activation: NONE, Method: STANDARD PLATE): inactive; negative
- mutagenic call (Test System: AMES SALMONELLA TYPHIMURIUM, Strain/Indicator: TA2638, Metabolic Activation: RAT, LIVER, S-9, AROCLOR 1254, Method: STANDARD PLATE): inactive; negative
- mutagenic call (Test System: AMES SALMONELLA TYPHIMURIUM, Strain/Indicator: UTH8413, Metabolic Activation: NONE, Method: STANDARD PLATE): inactive; negative
- mutagenic call (Test System: AMES SALMONELLA TYPHIMURIUM, Strain/Indicator: UTH8413, Metabolic Activation: RAT, LIVER, S-9, AROCLOR 1254, Method: STANDARD PLATE): inactive; negative
- mutagenic call (Test System: AMES SALMONELLA TYPHIMURIUM, Strain/Indicator: UTH8414, Metabolic Activation: NONE, Method: STANDARD PLATE): inactive; negative
- mutagenic call (Test System: AMES SALMONELLA TYPHIMURIUM, Strain/Indicator: UTH8414, Metabolic Activation: RAT, LIVER, S-9, AROCLOR 1254, Method: STANDARD PLATE): inactive; negative

Structure (SMILES): Nc1ccn([C@@H]2CS[C@H](CO)O2)c(=O)n1
- mutagenic call (Test System: Human TK6 Lymphoblastoid Cells, Strain/Indicator: HPRT, Metabolic Activation: None, Method: Standard Plate): active; positive
- mutagenic call (Test System: Human TK6 Lymphoblastoid Cells, Strain/Indicator: TK, Metabolic Activation: None, Method: Standard Plate): active; positive
- mutagenic call (Test System: Mouse lymphoma, Strain/Indicator: L5178Y (tk+/tk-), Metabolic Activation: None, Method: Suspension/plate): inactive; negative
- mutagenic call (Test System: Mouse lymphoma, Strain/Indicator: L5178Y (tk+/tk-), Metabolic Activation: Rat, Liver, S-9, Aroclor 1254, Method: Suspension/plate): inactive; negative

Structure (SMILES): COc1ccc(-c2nc(-c3ccc(C)cc3)c(-c3ccc(C)cc3)[nH]2)cc1OC
- mutagenic call [1]: active; positive
- mutagenic call (Test System: AMES SALMONELLA TYPHIMURIUM, Strain/Indicator: TA98, Metabolic Activation: RAT LIVER S-9, 3-METHYLCHOLANTHRENE, SODIUM PHENOBARBITAL, Method: STANDARD PLATE): inactive; negative
- mutagenic call [2]: active; positive
- mutagenic call (Test System: AMES SALMONELLA TYPHIMURIUM, Strain/Indicator: TA100, Metabolic Activation: RAT LIVER S-9, 3-METHYLCHOLANTHRENE, SODIUM PHENOBARBITAL, Method: STANDARD PLATE): inactive; negative
